According to patent US6589970B2, “6-(aryl-amido or aryl-amidomethyl)-naphthalen-2-yloxy-acidic derivatives as inhibitors of plasminogen activator inhibitor type-1 (PAI-1)” (Wyeth, priority 2001, dated 2003):
Structures can show the parent of a compound that is named as a salt.

Columns and labels:
[1] = molecular target: T1, recombinant human plasminogen activator inhibitor-1 (PAI-1) (Homo sapiens, UniProt P05121); test: Primary Screen for the PAI-1 Inhibition; type: biochemical; settings: for inhibition at 25 µM: 25 μM test compound, read-out: % Inhib. 25 μM; for inhibition at 100 µM: 100 μM test compound, read-out: % Inhib. 100 μM
T1 construct: purchased Molecular Innovations, Royal Oak, Mich
T1 sequence (P05121 24-402): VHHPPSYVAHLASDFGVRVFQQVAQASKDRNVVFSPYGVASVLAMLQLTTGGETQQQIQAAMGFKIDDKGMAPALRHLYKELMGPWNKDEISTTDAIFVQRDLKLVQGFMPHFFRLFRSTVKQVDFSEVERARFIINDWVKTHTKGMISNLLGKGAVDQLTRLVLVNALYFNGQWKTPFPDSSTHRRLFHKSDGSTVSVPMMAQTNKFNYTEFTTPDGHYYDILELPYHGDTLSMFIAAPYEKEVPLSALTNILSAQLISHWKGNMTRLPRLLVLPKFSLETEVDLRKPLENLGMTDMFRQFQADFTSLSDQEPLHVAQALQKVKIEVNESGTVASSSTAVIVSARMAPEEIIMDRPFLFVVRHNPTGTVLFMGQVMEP
Protocol: (§1) Test compounds are dissolved in DMSO at a final concentration of 10 mM, then diluted 100× in physiologic buffer. The inhibitory assay is initiated by the addition of the test compound (1-100 μM final concentration, maximum DMSO concentration of 0.2%) in a pH 6.6 buffer containing 140 nM recombinant human plasminogen activator inhibitor-1 (PAI-1; Molecular Innovations, Royal Oak, Mich.). Following a 1 hour incubation at room temperature, 70 nM of recombinant human tissue plasminogen activator (tPA) is added, and the combination of the test compound, PAI-1 and tPA is incubated for an additional 30 minutes. Following the second incubation, Spectrozyme-tPA (American Diagnostica, Greenwich, Conn.), a chromogenic substrate for tPA, is added and absorbance read at 405 nm at 0 and 60 minutes. Relative PAI-1 inhibition is equal to the residual tPA activity in the presence of the test compound and PAI-1. Control treatments include the complete inhibition of tPA by PAI-1 at the molar ratio employed (2:1), and the absence of any effect of the test compound on tPA alone.

[2] = molecular target: T1, recombinant human plasminogen activator inhibitor-1 (PAI-1); test: Modification of the Primary Screen for the PAI-1 Inhibition (IC50); type: biochemical
Protocol: as §1

[3] = molecular target: human PAI-1 (Homo sapiens, UniProt P05121); test: Assay for Determining IC50 of Inhibition of PAI-1 (Antibody Assay); type: biochemical; settings: active PAI-1 bound to tPA-coated plate
Chain of human PAI-1 (P05121 24-402): as above
Protocol: This assay is based upon the non-SDS dissociable interaction between tPA and active PAI-1. Assay plates are initially coated with human tPA (10 μg/ml). The test compounds are dissolved in DMSO at 10 mM, then diluted with physiologic buffer (pH 7.5) to a final concentration of 1-50 μM. The test compounds are incubated with human PAI-1 (50 ng/ml) for 15 minutes at room temperature. The tPA-coated plate is washed with a solution of 0.05% Tween 20 and 0.1% BSA, then the plate is blocked with a solution of 3% BSA. An aliquot of the test compound/PAI-1 solution is then added to the tPA-coated plate, incubated at room temperature for 1 hour, and washed. Active PAI-1 bound to the plate is assessed by adding an aliquot of a 1:1000 dilution of the 33B8 monoclonal antibody against human PAI-1, and incubating the plate at room temperature for 1 hour (Molecular Innovations, Royal Oak, Mich. The plate is again washed, and a solution of goat anti-mouse IgG-alkaline phosphatase conjugate is added at a 1:50,000 dilution in goat serum. The plate is incubated 30 minutes at room temperature, washed, and a solution of alkaline phosphatase substrate is added. The plate is incubated 45 minutes at room temperature, and color development is determined at OD405nm. The quantitation of active PAI-1 bound to tPA at varying concentrations of the test compound is used to determine the IC50. Results are analyzed using a logarithmic best-fit equation. The assay sensitivity is 5 ng/ml of human PAI-1 as determined from a standard curve ranging from 0-100 ng/ml.

SMILES | inhibition at 25 µM [1] | inhibition at 100 µM [1] | IC50 [2] | IC50 [3] | melting point
CCCCc1oc2ccccc2c1C(=O)Nc1ccc2c(Br)c(OCC(=O)O)ccc2c1 [Example 6, {1-Bromo-6-[(2-butyl-benzofuran-3-carbonyl)-amino]-naphthalen-2-yloxy}-acetic acid sodium salt] | 43% | 67% | 18.3 µM | – | –
CCCCc1oc2ccccc2c1C(=O)NCc1ccc2cc(OCc3nnn[nH]3)ccc2c1 [Example 8, 2-Butyl-benzofuran-3-carboxylic acid [6-(1H-tetrazol-5-ylmethoxy)-naphthalen-2-ylmethyl]-amide sodium salt] | 13% | 71% | 22.9 µM | – | –
Cc1oc(-c2ccc(Cl)cc2)cc1C(=O)NCc1ccc2cc(OCC(=O)O)ccc2c1 [Example 10, [6-({[5-(4-Chloro-phenyl)-2-methyl-furan-3-carbonyl]-amino}-methyl)-naphthalen-2-yloxy]-acetic acid] | 7% | 53% | 25.2 µM | – | –
CCCCc1oc2ccccc2c1C(=O)NCc1ccc2c(Br)c(OC(Cc3ccccc3)C(=O)O)ccc2c1 (stereo not shown) [Example 18, 2-(1-Bromo-6-{[(2-butyl-benzofuran-3-carbonyl)-amino]-methyl}-naphthalen-2-yloxy)-3-phenyl-propionic acid] | 53% | 92% | – | 15.7 µM | –
Cc1oc2ccccc2c1C(=O)NCc1ccc2c(Br)c(OCc3nnn[nH]3)ccc2c1 [Example 20, 2-Methyl-benzofuran-3-carboxylic acid [5-bromo-6-(1H-tetrazol-5-ylmethoxy)-naphthalen-2-ylmethyl]-amide] | 26% | 58% | – | 15.8 µM | 242 to 244 °C
CCc1oc2ccccc2c1C(=O)NCc1ccc2c(Br)c(OCc3nnn[nH]3)ccc2c1 [Example 21, 2-Ethyl-benzofuran-3-carboxylic acid [5-bromo-6-(1H-tetrazol-5-yl methoxy)-naphthalen-2-ylmethyl]-amide] | 36% | 54% | – | 5.08 µM | 235 to 238 °C
CCCCc1oc2ccccc2c1C(=O)NCc1ccc2c(-c3ccc(OC)cc3)c(OCc3nnn[nH]3)ccc2c1 [Example 25, 2-Butyl-benzofuran-3-carboxylic [5-(4-methoxy phenyl)-6-(1H-tetrazol-5-ylmethoxy)-naphthalen-2-ylmethyl]-amide, sodium salt] | 3% | 94% | 4.6 µM | – | –
CCCCc1oc2ccccc2c1C(=O)NCc1ccc2c(-c3ccc(OC)cc3)c(OC(Cc3ccccc3)C(=O)[O-])ccc2c1.[Na+] (stereo not shown) [Example 30, Sodium; 2-[6-{[(2-Butyl-benzofuran-3-carbonyl)-amino]-methyl}-1-(4-methoxy-phenyl)-naphthalen-2-yloxy]-3-phenyl-propionate] | 38% | 91% | – | 44.9 µM | 138 to 142 °C
CCc1oc2ccccc2c1C(=O)N(C)Cc1ccc2c(Br)c(OCc3nnn[nH]3)ccc2c1 [Example 32, 2-Ethyl-benzofuran-3-carboxylic acid [5-bromo-6-(1H-tetrazol-5-ylmethoxy)-naphthalen-2-ylmethyl]-methyl-amide] | 1% | 70% | – | 25.9 µM | –
CCCc1c(C(=O)N(C)Cc2ccc3c(Br)c(OCc4nnn[nH]4)ccc3c2)cnn1-c1ccccc1 [Example 33, 1-Phenyl-5-propyl-1H-pyrazole-4-carboxylic acid [5-bromo-6-(1H-tetrazol-5-ylmethoxy)-naphthalen-2-ylmethyl]-methyl-amide] | 59% | 94% | – | 31.1 µM | 75 to 85 °C
CN(Cc1ccc2c(Br)c(OCc3nnn[nH]3)ccc2c1)C(=O)c1cn(Cc2ccccc2)c2ccccc12 [Example 34, 1-Benzyl-1H-indole-3-carboxylic acid [5-bromo-6-(1H-tetrazol-5-ylmethoxy)-naphthalen-2-ylmethyl]-methyl-amide] | 34% | 81% | – | 19.3 µM | 197 to 198 °C
CN(Cc1ccc2c(Br)c(OCc3nnn[nH]3)ccc2c1)C(=O)c1cn(C)c2ccccc12 [Example 37, 1-Methyl-1H-indole-3-carboxylic acid [5-bromo-6-(1H-tetrazol-5-ylmethoxy)-naphthalen-2-ylmethyl]-methyl-amide] | 52% | 96% | – | 20.6 µM | 227 to 228 °C
Cc1oc2ccccc2c1C(=O)N(Cc1ccccc1)Cc1ccc2c(Br)c(OCc3nnn[nH]3)ccc2c1 [Example 49, 2-Methyl-benzofuran-3-carboxylic acid benzyl-[5-bromo-6-(1H-tetrazol-5-ylmethoxy)-naphthalen-2-ylmethyl]-amide] | 54% | 72% | – | 6.92 µM | –
CCc1oc2ccccc2c1C(=O)N(Cc1ccccc1)Cc1ccc2c(Br)c(OCc3nnn[nH]3)ccc2c1 [Example 50, 2-Ethyl-benzofuran-3-carboxylic acid benzyl-[5-bromo-6-(1H-tetrazol-5ylmethoxy)-naphthalen-2-ylmethyl)-amide] | 56% | 61% | – | 35.7 µM | –
CCCCN(Cc1ccc2c(Br)c(OCc3nnn[nH]3)ccc2c1)C(=O)c1c(C)oc2ccccc12 [Example 52, 2-Methyl-benzofuran-3-carboxylic acid [5-bromo-6-(1H-tetrazol-5-ylmethoxy)-naphthalen-2-ylmethyl]-butyl-amide] | 44% | 81% | – | 20.8 µM | 204 to 206 °C
CN(Cc1ccc2c(Br)c(OC(Cc3ccccc3)C(=O)O)ccc2c1)C(=O)c1ccc(Oc2cc(Cl)cc(Cl)c2)o1 (stereo not shown) [Example 64, 2-[1-Bromo-6-({[5-(3,5-dichloro-phenoxy)-furan-2-carbonyl]-methyl-amino}-methyl)-naphthalen-2-yloxy]-3-phenyl-propionic acid] | 40% | 60% | – | 13.6 µM | –
CN(Cc1ccc2c(Br)c(OC(Cc3ccccc3)C(=O)O)ccc2c1)C(=O)c1cc(C(C)(C)C)cc(C(C)(C)C)c1 (stereo not shown) [Example 65, 2-(1-Bromo-6-{[(3,5-di-tert-butyl-benzoyl)-methyl-amino]-methyl}-naphthalen-2-yloxy)-3-phenyl-propionic acid] | 46% | 88% | – | 14.6 µM | –
O=C(O)C(Cc1ccccc1)Oc1ccc2cc(CN(Cc3ccccc3)C(=O)c3ccc(Oc4cc(Cl)cc(Cl)c4)o3)ccc2c1Br (stereo not shown) [Example 67, 2-[6-({Benzyl-[5-(3,5-dichloro-phenoxy)-furan-2-carbonyl]-amino}-methyl)-1-bromo-naphthalen-2-yloxy]-3-phenyl-propionic acid] | 59% | 66% | – | 13.5 µM | –
CCCCc1oc2ccccc2c1C(=O)N(Cc1ccccc1)Cc1ccc2c(Br)c(OC(Cc3ccccc3)C(=O)O)ccc2c1 (stereo not shown) [Example 68, 2-(6-{[Benzyl-(2-butyl-benzofuran-3-carbonyl)-amino]-methyl}-1-bromo-naphthalen-2-yloxy)-3-phenyl-propionic acid] | 54% | 84% | – | 20 µM | –
CC(C)(C)c1cc(C(=O)N(Cc2ccccc2)Cc2ccc3c(Br)c(OC(Cc4ccccc4)C(=O)O)ccc3c2)cc(C(C)(C)C)c1 (stereo not shown) [Example 69, 2-(6-{[Benzyl-(3,5-di-tert-butyl-benzoyl)-amino]-methyl}-1-bromo-naphthalen-2-yloxy)-3-phenyl-propionic acid] | 55% | 92% | – | 16.8 µM | –
